# How the values were obtained:
# [1] = test system: Imiquimod induced psoriasis in BALB/c mice; assay: Imiquimod induced psoriasis model in Balb/c mice
# Protocol: BALB/c mice (Sex: Female, Age: 7-8 Weeks) were used for induction of psoriasis using IMQ. Topical application of imiquimod (IMQ) in mice can induce and exacerbate psoriasis closely resembling human psoriasis. […] 3%, 4% and 5% and positive control of Tenovate (Clobetasol) 0.05% cream. In all 63 mg cream containing 5% of IMQ was applied to dorsal area (shaved back) and right ear for 8 days. Topical formulations from Example 7 were used during this experiment.
# The parameters investigated were ear thickness change, % inhibition of ear inflammation, Psoriatic Area Severity Index (PASI). Histopathology was performed of right ear and dorsal skin by H & E staining. The biomarker in this study was inflammatory cytokine IL-23 analyzed by ELISA obtained from tissue lysate of ear region where IMQ and doses were applied.
# human PBMCs = assay: Cell viability of human PBMCs, Alamar blue; format: cell-based; conditions: 3 μM
# Protocol: (§1) Fresh human blood from healthy volunteer was collected in anticoagulant (5 mM) ethylene diamine tetra acetic acid (EDTA) containing tubes. The growth medium used was RPMI-1640 medium (with 3% FBS) and incubated at 37° C. for 60 mins in a 5% CO2 incubator with vehicle used as 1% DMSO. The cell viability was checked at various time points using Alamar blue and fluorescence readings were taken at excitation of 544 nm and emission of 590 nm.
# Human IL-22 = assay: IL-22 release from stimulated PBMCs, ELISA; format: cell-based; conditions: 1 μM; PMA+Ionomycin, 18 hrs
# Protocol: as §1
# (§2) PBMCs were stimulated with different stimulators as follows: • a. Cells were exposed to stimulator LPS at 100 ng/mL for 18 hrs to stimulate TNF-α, IL-6, IFN-γ, IL10, IL-1β • b. Cells were exposed to stimulator IFN-γ+LPS at 100 ng/mL+1 μg/mL for 18 hrs to stimulate IL-12 • c. Cells were exposed to stimulator PMA+Ionomycin at 50 ng/mL+1 μg/mL for 18 hrs to stimulate IL-23, IL-22, IL-17A, IL-17F
# (§3) After 18 hrs supernatants were collected and centrifuged to remove any cell debris and aliquots were used for ELISA.
# Human IL-17A = assay: IL-17A release from stimulated PBMCs, ELISA; format: cell-based; conditions: 1 μM; PMA+Ionomycin, 18 hrs
# Protocol: as §1, §2, §3
# Human IL-17F = assay: IL-17F release from stimulated PBMCs, ELISA; format: cell-based; conditions: 1 μM; PMA+Ionomycin, 18 hrs
# Protocol: as §1, §2, §3
# Human TNF-α = assay: TNF-α release from stimulated PBMCs, ELISA; format: cell-based; conditions: 1 μM; LPS 100 ng/mL, 18 hrs
# Protocol: as §1, §2, §3
# Human IL-6 = assay: IL-6 release from stimulated PBMCs, ELISA; format: cell-based; conditions: 1 μM; LPS 100 ng/mL, 18 hrs
# Protocol: as §1, §2, §3
# Human IL-10 = assay: IL-10 release from stimulated PBMCs, ELISA; format: cell-based; conditions: 1 μM; LPS 100 ng/mL, 18 hrs
# Protocol: as §1, §2, §3
# Human IL-12 = assay: IL-12 release from stimulated PBMCs, ELISA; format: cell-based; conditions: 1 μM; IFN-γ+LPS, 18 hrs
# Protocol: as §1, §2, §3
# Human IFN-γ = assay: IFN-γ release from stimulated PBMCs, ELISA; format: cell-based; conditions: 1 μM; LPS 100 ng/mL, 18 hrs
# Protocol: as §1, §2, §3
# Human IL-1β = assay: IL-1β release from stimulated PBMCs, ELISA; format: cell-based; conditions: 1 μM; LPS 100 ng/mL, 18 hrs
# Protocol: as §1, §2, §3
# HaCaT cells = assay: Cell viability of HaCaT cells, Alamar blue; format: cell-based, human; conditions: 3 μM
# Protocol: (§4) HaCaT cells were maintained in T-75 cm2 flask in Dulbecco's modified Eagle medium supplemented with FBS (10%), L-glutamine (2 mM), penicillin (100 ug/ml), streptomycin (100 ug/ml) at 37° C. in 5% CO2 incubator. Cell growth was maintained to 70-80% confluence for seeding and vehicle used was 1% DMSO. The cell viability was checked at various time points using Alamar blue and fluorescence readings were taken at excitation of 544 nm and emission of 590 nm.
# TNF-α = TNF-α release from stimulated HaCaT cells, ELISA; format: cell-based, human; conditions: 1 μM; IFN-γ 50 ng/mL, 48 hrs
# Protocol: as §4
# (§5) HaCaT cells were stimulated with different stimulators as follows: • a. Cells were exposed to stimulator LPS at 1 μg/mL for 48 hrs to stimulate IL-1β • b. Cells were exposed to stimulator IFN-γ at 50 ng/mL for 48 hrs to stimulate TNF-α, IL-6
# (§6) After 48 hrs supernatants were collected and centrifuged to remove any cell debris and aliquots were used for ELISA.
# IL-6 = IL-6 release from stimulated HaCaT cells, ELISA; format: cell-based, human; conditions: 1 μM; IFN-γ 50 ng/mL, 48 hrs
# Protocol: as §4, §5, §6
smiles,measurement,setting,value
C[C@H]1C[C@H]2[C@@H]3CCC4=CC(=O)C=C[C@]4(C)[C@@]3(F)[C@@H](O)C[C@]2(C)[C@@]1(O)C(=O)CCl [Clobetasol],% Body Weight Change,"[1]; 0.05% cream, positive control",−16.9%
same,% inhibition of Ear inflamn.,"[1]; 0.05% cream, positive control",86.9%
same,Histopathology Scores Epidermal Thickness,"[1]; 0.05% cream, positive control",4.3 ± 0.3
same,Histopathology Scores Hyperkeratosis,"[1]; 0.05% cream, positive control",1.0 ± 0.0
same,Histopathology Scores Rete Peg Prolifern.,"[1]; 0.05% cream, positive control",0.3 ± 0.3
same,PASI score,"[1]; 0.05% cream, positive control",4.83 ± 2.3
same,Spleen weight,"[1]; 0.05% cream, positive control, Day 9",49.3 ± 10.3 mg
same,IL23 Levels,"[1]; 0.05% cream, positive control, ear tissue lysate",64.1 ± 7.4 pg/mL
same,Spleen weight vs disease control (in words),"[1]; Niclosamide 2%, Nitazoxanide 3% and 5%, Clobetasol 0.05%, Day 9",reduction in spleen weight was observed to be significant
same,Body weight change (in words),"[1]; all tested doses, Clobetasol Day 7 to Day 9",significant body weight change
same,IL-23 level in ear tissue homogenates (in words),[1]; different doses,reduces IL-23 levels below that of normal control
C[C@@H]1C[C@H]2[C@@H]3CCC4=CC(=O)C=C[C@]4(C)[C@@]3(F)[C@@H](O)C[C@]2(C)[C@@]1(O)C(=O)CO [Dexamethasone],% Viability (±S.E.M.),human PBMCs; 24 hrs,82 ± 6%
same,% Viability (±S.E.M.),human PBMCs; 48 hrs,78 ± 1%
same,% Viability (±S.E.M.),human PBMCs; 72 hrs,81 ± 1%
same,Human IL-22 concentration,Human IL-22,2496 pg/mL
same,Human IL-17A concentration,Human IL-17A,186 pg/mL
same,Human IL-17F concentration,Human IL-17F,322 pg/mL
same,Human TNF-α concentration,Human TNF-α,325 pg/mL
same,Human IL-6 concentration,Human IL-6,3052 pg/mL
same,Human IL-10 concentration,Human IL-10,710 pg/mL
same,Human IL-12 concentration,Human IL-12,163 pg/mL
same,Human IFN-γ concentration,Human IFN-γ,165 pg/mL
same,Human IL-1β concentration,Human IL-1β,174 pg/mL
same,% Viability (±S.E.M.),HaCaT cells; 24 hrs,46 ± 3%
same,% Viability (±S.E.M.),HaCaT cells; 48 hrs,18 ± 2%
same,% Viability (±S.E.M.),HaCaT cells; 72 hrs,8 ± 0%
same,TNF-α Conc.,TNF-α,3.2 ± 0 pg/mL
same,IL-6 Conc.,IL-6,33 ± 1 pg/mL
COc1cccc2c1C(=O)c1c(O)c3c(c(O)c1C2=O)C[C@@](O)(C(=O)CO)C[C@@H]3O[C@H]1C[C@H](N)[C@H](O)[C@H](C)O1 [Doxorubicin],% Viability (±S.E.M.),human PBMCs; 24 hrs,110 ± 1%
same,% Viability (±S.E.M.),human PBMCs; 48 hrs,70 ± 5%
same,% Viability (±S.E.M.),human PBMCs; 72 hrs,52 ± 1%
same,% Viability (±S.E.M.),HaCaT cells; 24 hrs,74 ± 6%
same,% Viability (±S.E.M.),HaCaT cells; 48 hrs,108 ± 5%
same,% Viability (±S.E.M.),HaCaT cells; 72 hrs,110 ± 2%

# — patent publication US11786492B2, “Therapeutic agent for phosphodiesterase inhibition and its related disorders” (Novalead Pharma Inc, priority 2017, dated 2023)
